Results published in publication PMC10281575, “PfCRT mutations conferring piperaquine resistance in falciparum malaria shape the kinetics of quinoline drug binding and transport” (PLOS Pathogens, 2023).
Numbering of substitutions follows the chain as printed. “Also recorded” adds a separate entry of the source.

Legend:
[1] = target: T1, PfCRT^Dd2_M343L (Plasmodium falciparum, UniProt Q8IBZ9, A220S/I356T/K76T/M343L/M74I/N326S/N75E/Q271E/R371I); experiment: Verapamil inhibition of PfCRT-mediated CQ and PPQ transport in oocytes, PfCRT^Dd2_M343L; assay type: cell-based; settings: 100 μM verapamil, 50 μM CQ or PPQ
T1 construct: expressed in transfected cells; host or cells: Xenopus laevis oocytes injected with in vitro transcribed RNA (pSP64T)
T1 sequence (Q8IBZ9 1-424 M74I/N75E/K76T/A220S/Q271E/N326S/M343L/I356T/R371I): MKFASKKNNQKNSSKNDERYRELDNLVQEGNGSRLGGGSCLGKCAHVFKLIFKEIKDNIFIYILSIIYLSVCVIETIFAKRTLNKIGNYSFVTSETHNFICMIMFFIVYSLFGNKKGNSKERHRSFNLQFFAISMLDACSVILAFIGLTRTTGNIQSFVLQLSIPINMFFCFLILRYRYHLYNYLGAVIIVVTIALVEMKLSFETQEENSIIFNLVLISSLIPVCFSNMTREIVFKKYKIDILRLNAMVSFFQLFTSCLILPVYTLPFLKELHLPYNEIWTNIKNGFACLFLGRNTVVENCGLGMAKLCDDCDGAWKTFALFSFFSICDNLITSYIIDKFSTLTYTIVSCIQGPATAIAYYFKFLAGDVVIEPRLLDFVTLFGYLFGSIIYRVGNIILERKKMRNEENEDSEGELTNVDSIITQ
Procedure: (§1) In all cases, the PfCRT-mediated CQ and PPQ transport was inhibited in the presence of 100 μM verapamil (S3 Fig).
(§2) Drug transport assays were performed as previously described. Briefly, measurements of radiolabeled drug uptake were made over 1 h, unless otherwise specified. […] Where specified, one or more unlabeled drugs were also present at the indicated concentrations. The direction of drug transport in the assays is from the extracellular medium (pH 6) into the oocyte cytosol (pH 7.2), which corresponds to the efflux of CQ or PPQ from the acidic digestive vacuole (pH 5.2) into the parasite cytosol (pH 7.2). The uptake assays were terminated by removing the oocytes from the reaction medium and washing them three times with 2 mL of ice-cold ND96 buffer. Each oocyte was transferred to a separate scintillation vial and lysed by the addition of 200 μL of a 5% SDS solution. The radioactivity in the sample was measured using a liquid scintillation analyser Tri-Carb 4910 TR (PerkinElmer). Water-injected oocytes were analyzed in parallel as a negative control. The buffer from each condition was measured in duplicate in parallel to each experiment to transform counts per minute into pmol of drug. Drug uptake attributable to PfCRT was determined by subtracting the background uptake from water-injected oocytes from that of PfCRT-expressing oocytes. In all cases, at least three independent experiments were performed on oocytes from different frogs, and for each condition in an experiment, measurements were made from 10 oocytes per treatment.
(§3) Supplementary file ppat.1011436.s006.tif: S3 Fig Verapamil inhibits PfCRT-mediated transport of CQ and PPQ. […] Left panels, data is shown as individual biological replicates (coloured symbols) overlaid onto bars representing the Mean ± S.E.M. (error bars). A one-tailed Student’s t-test was performed between untreated (no VP) and treated (+ 100 μM VP) samples, and the obtained p values are shown. Right panels, the uptake in VP-treated samples was divided by the uptake in their corresponding untreated pairs and subtracted from 100% to get the percentage of uptake inhibition mediated by the presence of 100 μM verapamil in the extracellular medium. Error bars are S.E. (TIF) Click here for additional data file.

[2] = target: T2, PfCRT^Dd2 (Plasmodium falciparum, UniProt Q8IBZ9, A220S/I356T/K76T/M74I/N326S/N75E/Q271E/R371I); design: expressed in transfected cells; host or cells: Xenopus laevis oocytes injected with in vitro transcribed RNA (pSP64T); settings: cited from earlier work
T2 sequence (Q8IBZ9 1-424 M74I/N75E/K76T/A220S/Q271E/N326S/I356T/R371I): T1 sequence (Q8IBZ9 1-424 M74I/N75E/K76T/A220S/Q271E/N326S/M343L/I356T/R371I) with L343M

[3] = target: T3, PfCRT^Dd2_G353V (Plasmodium falciparum, UniProt Q8IBZ9, A220S/G353V/I356T/K76T/M74I/N326S/N75E/Q271E/R371I); experiment: Verapamil inhibition of PfCRT-mediated CQ and PPQ transport in oocytes, PfCRT^Dd2_G353V; assay type: cell-based; settings: 100 μM verapamil, 50 μM CQ or PPQ
T3 construct: expressed in transfected cells; host or cells: Xenopus laevis oocytes injected with in vitro transcribed RNA (pSP64T)
T3 sequence (Q8IBZ9 1-424 M74I/N75E/K76T/A220S/Q271E/N326S/G353V/I356T/R371I): T1 sequence (Q8IBZ9 1-424 M74I/N75E/K76T/A220S/Q271E/N326S/M343L/I356T/R371I) with L343M, G353V
Procedure: as §1, §2, §3

[4] = target: T2, PfCRT^Dd2; experiment: Verapamil inhibition of PfCRT-mediated CQ and PPQ transport in oocytes, PfCRT^Dd2; assay type: cell-based; design: expressed in transfected cells; host or cells: Xenopus laevis oocytes injected with in vitro transcribed RNA (pSP64T); settings: 100 μM verapamil, 50 μM CQ or PPQ
Procedure: as §1, §2, §3

[5] = target: T4, PfCRT^Dd2_F145I (Plasmodium falciparum, UniProt Q8IBZ9, A220S/F145I/I356T/K76T/M74I/N326S/N75E/Q271E/R371I); experiment: Verapamil inhibition of PfCRT-mediated CQ and PPQ transport in oocytes, PfCRT^Dd2_F145I; assay type: cell-based; settings: 100 μM verapamil, 50 μM CQ or PPQ
T4 construct: expressed in transfected cells; host or cells: Xenopus laevis oocytes injected with in vitro transcribed RNA (pSP64T)
T4 sequence (Q8IBZ9 1-424 M74I/N75E/K76T/F145I/A220S/Q271E/N326S/I356T/R371I): T1 sequence (Q8IBZ9 1-424 M74I/N75E/K76T/A220S/Q271E/N326S/M343L/I356T/R371I) with F145I, L343M
Procedure: as §1
as §2, with “In all cases, at least three independent experiments were performed on oocytes from different frogs, and for each condition in an experiment, measurements were made from 10 oocytes per treatment.” left out

[6] = target: T5, PfCRT^Dd2_H97Y (Plasmodium falciparum, UniProt Q8IBZ9, A220S/H97Y/I356T/K76T/M74I/N326S/N75E/Q271E/R371I); experiment: Verapamil inhibition of PfCRT-mediated CQ and PPQ transport in oocytes, PfCRT^Dd2_H97Y; assay type: cell-based; settings: 100 μM verapamil, 50 μM CQ or PPQ
T5 construct: expressed in transfected cells; host or cells: Xenopus laevis oocytes injected with in vitro transcribed RNA (pSP64T)
T5 sequence (Q8IBZ9 1-424 M74I/N75E/K76T/H97Y/A220S/Q271E/N326S/I356T/R371I): T1 sequence (Q8IBZ9 1-424 M74I/N75E/K76T/A220S/Q271E/N326S/M343L/I356T/R371I) with H97Y, L343M
Procedure: as §1, §2, §3

| Structure (SMILES) | PfCRT-mediated CQ and PPQ transport in the presence of verapamil [1] | inhibition model versus CQ on PfCRT [2] | PfCRT-mediated CQ and PPQ transport in the presence of verapamil [3] | PfCRT-mediated CQ and PPQ transport in the presence of verapamil [4] | PfCRT-mediated CQ and PPQ transport in the presence of verapamil [5] | PfCRT-mediated CQ and PPQ transport in the presence of verapamil [6] |
| --- | --- | --- | --- | --- | --- | --- |
| COc1ccc(CCN(C)CCCC(C#N)(c2ccc(OC)c(OC)c2)C(C)C)cc1OC (stereo not shown) [verapamil] | inhibited | partial mixed-type inhibitor; also recorded: mixed-type inhibition | inhibited | inhibited | inhibited | inhibited |
| C=C[C@H]1C[N@@]2CC[C@H]1C[C@H]2[C@H](O)c1ccnc2ccc(OC)cc12 [quinine] | – | partial mixed-type inhibition | – | – | – | – |
